Measurements published in US11098056B2, “UDP glycosyltransferase inhibitors and methods of use” (GENZYME CORPORATION, priority 2018, dated 2021).

Biological target: T1, UGT8 (Homo sapiens, UniProt Q16880)
T1 construct: host or cells: OE19 cells
T1 sequence (Q16880 21-541): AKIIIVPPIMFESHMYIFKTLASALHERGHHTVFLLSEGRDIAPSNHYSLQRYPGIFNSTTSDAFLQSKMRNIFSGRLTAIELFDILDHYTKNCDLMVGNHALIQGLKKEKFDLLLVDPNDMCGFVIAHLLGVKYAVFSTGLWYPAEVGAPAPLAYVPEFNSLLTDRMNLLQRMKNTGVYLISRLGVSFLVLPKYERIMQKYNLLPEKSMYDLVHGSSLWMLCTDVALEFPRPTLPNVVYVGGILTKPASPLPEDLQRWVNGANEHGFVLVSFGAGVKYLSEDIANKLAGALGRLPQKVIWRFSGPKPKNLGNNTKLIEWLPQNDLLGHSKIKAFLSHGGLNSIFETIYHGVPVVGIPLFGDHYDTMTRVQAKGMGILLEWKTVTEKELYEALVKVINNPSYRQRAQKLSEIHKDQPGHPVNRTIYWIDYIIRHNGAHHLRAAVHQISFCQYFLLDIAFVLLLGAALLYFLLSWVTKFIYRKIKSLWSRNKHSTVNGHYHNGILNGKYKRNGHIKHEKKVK
Assay: In vitro sulfatide (SFT) synthesis inhibition in OE19 cells, LC-MS/MS readout
Assay type: cell-based
Conditions: 72 hr, sulfatide by LC-MS/MS, read-out: Potency range (IC50, In-vitro SFT)
Experimental: For medium throughput screening, library compounds were dispensed into CellBIND 384 well plates to a final concentration of 10 μM. OE19 cells (Sigma) were grown in to 70-90% confluency in RPMI 1640+L-glutamine and […]; were trypsinized to achieve suspension and were aliquoted at 2,500 cells/well, total well volume 50 μl. Plates were incubated 72 hr at 37° C. in 5% CO2; supernatant was removed and plates were dried, heat-sealed and stored at −20° C. until analysis.
For IC50 determinations, the same procedure was followed except that test compounds were added to the plate as dose-downs in triplicate to yield concentration response curves.
Mass Spectrometer Analysis of Sulfatide (SFT):
Assay plates were thawed and 85 μl mobile phase B (5 mM ammonium formate^+0.2% formic acid in 50:50 methanol:acetonitrile). Fifteen μl 20 ng/ml C17 SFT in mobile phase B was added as an internal standard.
SFT was analyzed using an Applied Biosystems API-4000 triple quad mass spectrometer interfaced to a Thermo Scientific Multiplex system (LX-4) equipped with four pumps. Chromatography of OE19 cell samples or 2B5-mouse cells treated with compounds was performed using a Waters Acquity UPLC BEH C8 2.1×50 mm column with 1.7 um particle size. The chromatography was performed using the following mobile phases. Mobile phase A (MPA): 0.2% formic acid and 5 mM ammonium formate in deionized water; MPB: see above. The LC method was run in isocratic mode for 4 sequentially running columns using 95% MPB and 5% MPA with flow rate of 1 ml/min and a column temperature of 60° C.
The Triple quad mass spectrometer was run in Negative Ionization mode monitoring the following MRM transitions and using the following parameters:
Electrospray voltage was […], and source temperature was 550° C.

| SMILES | IC50 |
| --- | --- |
| CNC(=O)c1csc2c(C(F)(F)F)cc(N3CCN(CC(C)OCC4CC4)CC3)nc12 (racemic) [Example 39, (+/−)-5-(4-(2-(Cyclopropylmethoxy)propyl)piperazin-1-yl)-N-methyl-7-(trifluoromethyl)thieno[3,2-b]pyridine-3-carboxamide] | 100 to 1000 nM |
| CNC(=O)c1csc2c(C(F)(F)F)cc(O[C@@H]3CCN(C(=O)OC(C)(C)C)[C@@H](C)C3)nc12 (racemic) [Example 368, (+/−)-tert-Butyl trans-2-methyl-4-((3-(methylcarbamoyl)-7-(trifluoromethyl)thieno[3,2-b]pyridin-5-yl)oxy)piperidine-1-carboxylate] | 100 to 1000 nM |
| CNC(=O)c1csc2c(C(F)(F)F)cc(O[C@@H]3CCN(C(=O)OCCOC(F)(F)F)[C@@H](C)C3)nc12 (racemic) [Example 369, (+/−)-trans-2-(Trifluoromethoxy)ethyl-2-methyl-4-((3-(methylcarbamoyl)-7-(trifluoromethyl)thieno[3,2-b]pyridin-5-yl)oxy)piperidine-1-carboxylate] | < 100 nM |
| CNC(=O)c1csc2c(C(F)(F)F)cc(O[C@@H]3CCN(C(=O)OC(C)(C)C)[C@H](C)C3)nc12 (racemic) [Example 370, (+/−)-tert-Butyl cis-2-methyl-4-((3-(methylcarbamoyl)-7-(trifluoromethyl)thieno[3,2-b]pyridin-5-yl)oxy)piperidine-1-carboxylate] | < 100 nM |
| CNC(=O)c1csc2c(C(F)(F)F)cc(O[C@@H]3CCN(C(=O)OCCOC(F)(F)F)[C@H](C)C3)nc12 (racemic) [Example 371, (+/−)-cis-2-(Trifluoromethoxy)ethyl-2-methyl-4-((3-(methylcarbamoyl)-7-(trifluoromethyl)thieno[3,2-b]pyridin-5-yl)oxy)piperidine-1-carboxylate] | < 100 nM |
| CNC(=O)c1csc2c(C(F)(F)F)c(C)c(O[C@@H]3CCN(C(=O)OC(C)(C)C)C[C@@H]3F)nc12 (racemic) [Example 387, (+/−)-tert-Butyl cis-3-fluoro-4-((6-methyl-3-(methylcarbamoyl)-7-(trifluoromethyl)thieno[3,2-b]pyridin-5-yl)oxy)piperidine-1-carboxylate] | < 100 nM |
| CNC(=O)c1csc2c(C(F)(F)F)cc(N3CC[C@H](OC(=O)N[C@@H](C)COC(F)(F)F)[C@@H](F)C3)nc12 (racemic) [Example 418] | < 100 nM |
| CC(C)NC(=O)O[C@H]1CCN(c2cc(C(F)(F)F)c3scc(C(=O)N4CCC4)c3n2)C[C@@H]1F (racemic) [Example 441, (+/−)-trans-1-(3-(Azetidine-1-carbonyl)-7-(trifluoromethyl)thieno[3,2-b]pyridin-5-yl)-3-fluoropiperidin-4-yl isopropylcarbamate] | < 100 nM |
| CNC(=O)c1csc2c(C(F)(F)F)cc(N3CC[C@H](OC(=O)N(C(C)C)C(C)C)[C@@H](F)C3)nc12 (racemic) [Example 488, (+/−)-trans-3-Fluoro-1-(3-(methylcarbamoyl)-7-(trifluoromethyl)thieno[3,2-b]pyridin-5-yl)piperidin-4-yl diisopropylcarbamate] | < 100 nM |
| CNC(=O)c1csc2c(C(F)(F)F)cc(N3CC[C@H](OC(=O)NC(C)C)[C@@H](F)C3)nc12 (racemic) [Example 490, (+/−)-tran-3-Fluoro-1-(3-(methylcarbamoyl)-7-(trifluoromethyl)thieno[3,2-b]pyridin-5-yl)piperidin-4-yl isopropylcarbamate] | < 100 nM |
| CNC(=O)c1csc2c(C(F)(F)F)cc(N3CC[C@H](OC(=O)NC4CC4)[C@@H](F)C3)nc12 (racemic) [Example 492, (+/−)-trans-3-Fluoro-1-(3-(methylcarbamoyl)-7-(trifluoromethyl)thieno[3,2-b]pyridin-5-yl)piperidin-4-yl cyclopropylcarbamate] | < 100 nM |
| CNC(=O)c1csc2c(C(F)(F)F)cc(O[C@@H]3CN(C(=O)OC(C)(C)C)C[C@@H]3F)nc12 (racemic) [Example 609, tert-Butyl (+/−)-cis-3-fluoro-4-((3-(methylcarbamoyl)-7-(trifluoromethyl)thieno[3,2-b]pyridin-5-yl)oxy)pyrrolidine-1-carboxylate] | < 100 nM |
| CNC(=O)c1csc2c(C(F)(F)F)cc(O[C@H]3CN(C(=O)OCC4CC4)C[C@H]3F)nc12 (racemic) [Example 610, Cyclopropylmethyl (+/−)-cis-3-fluoro-4-((3-(methylcarbamoyl)-7-(trifluoromethyl)thieno[3,2-b]pyridin-5-yl)oxy)pyrrolidine-1-carboxylate] | < 100 nM |
| CNC(=O)c1csc2c(C(F)(F)F)cc(O[C@H]3CN(C(=O)OCCOC(F)(F)F)C[C@H]3F)nc12 (racemic) [Example 611, 2-(Trifluoromethoxy)ethyl (+/−)-cis-3-fluoro-4-((3-(methylcarbamoyl)-7-(trifluoromethyl)thieno[3,2-b]pyridin-5-yl)oxy)pyrrolidine-1-carboxylate] | < 100 nM |
| CNC(=O)c1csc2c(C(F)(F)F)cc(OC3CC4COCC(C3)N4C(=O)OC(C)(C)C)nc12 (racemic) [Example 628, tert-Butyl (+/−)-endo7-((3-(methylcarbamoyl)-7-(trifluoromethyl)thieno[3,2-b]pyridin-5-yl)oxy)-3-oxa-9-azabicyclo[3.3.1]nonane-9-carboxylate] | 100 to 1000 nM |
| CNC(=O)c1csc2c(C(F)(F)F)cc(OC3CC4COCC(C3)N4C(=O)OCCOC(F)(F)F)nc12 (racemic) [Example 629, 2-(Trifluoromethoxy)ethyl (+/−)-endo7-((3-(methylcarbamoyl)-7-(trifluoromethyl)thieno[3,2-b]pyridin-5-yl)oxy)-3-oxa-9-azabicyclo[3.3.]nonane-9-carboxylate] | < 100 nM |
| CNC(=O)c1csc2c(C(F)(F)F)cc(N3CCC(OC(=O)NC(C)CF)CC3)nc12 (racemic) [Example 671, [1-[3-(Methylcarbamoyl)-7-(trifluoromethyl)thieno[3,2-b]pyridin-5-yl]-4-piperidyl] N-(2-fluoro-1-methyl-ethyl)carbamate] | < 100 nM |
| CNC(=O)c1csc2c(C(F)(F)F)cc(O[C@H]3C[C@@H](OC(=O)N[C@@H](C)COC(F)(F)F)C3)nc12 (racemic) [Example 833, (+/−)-cis-(1S,3R)-3-((3-(Methylcarbamoyl)-7-(trifluoromethyl)thieno[3,2-b]pyridin-5-yl)oxy)cyclobutyl ((S)-1-(trifluoromethoxy)propan-2-yl)carbamate] | < 100 nM |
| COC(=O)c1csc2c(C(F)(F)F)cc(N3CCN(CC(=O)NC(C)C)CC3)nc12 [Example 10, Methyl 5-(4-(2-(isopropylamino)-2-oxoethyl)piperazin-1-yl)-7-(trifluoromethyl)thieno[3,2-b]pyridine-3-carboxylate] | < 100 nM |
| CCNC(=O)CN1CCN(c2cc(C(F)(F)F)c3scc(C(=O)NC)c3n2)CC1 [Example 25, 5-(4-(2-(Ethylamino)-2-oxoethyl)piperazin-1-yl)-N-methyl-7-(trifluoromethyl)thieno[3,2-b]pyridine-3-carboxamide] | 100 to 1000 nM |
| CNC(=O)c1csc2c(C(F)(F)F)cc(N3CCN(C(=O)COC(C)C)CC3)nc12 [Example 44, 5-(4-(2-Isopropoxyacetyl)piperazin-1-yl)-N-methyl-7-(trifluoromethyl)thieno[3,2-b]pyridine-3-carboxamide] | 100 to 1000 nM |
| CNC(=O)c1csc2c(C(F)(F)F)c(C)c(N3CCN(CC(=O)NC(C)C)CC3)nc12 [Example 47, 5-(4-(2-(Isopropylamino)-2-oxoethyl)piperazin-1-yl)-N,6-dimethyl-7-(trifluoromethyl)thieno[3,2-b]pyridine-3-carboxamide] | 100 to 1000 nM |
| CNC(=O)c1csc2c(C)cc(N3CCN(CC(=O)NC(C)C)CC3)nc12 [Example 48, 5-(4-(2-(Isopropylamino)-2-oxoethyl)piperazin-1-yl)-N,7-dimethylthieno[3,2-b]pyridine-3-carboxamide] | 100 to 1000 nM |
| CNC(=O)c1csc2c(C(F)(F)F)cc(N3CCN(CC(=O)NC(C)C)C(C)(C)C3)nc12 [Example 49, 5-(4-(2-(Isopropylamino)-2-oxoethyl)-3,3-dimethylpiperazin-1-yl)-N-methyl-7-(trifluoromethyl)thieno[3,2-b]pyridine-3-carboxamide] | < 100 nM |
